Reference: patent US8063053B2, “1-(arylsulfonyl)-4-(piperazin-1-yl)-1H-benzimidazoles as 5-hydroxytryptamine-6 ligands” (Wyeth LLC, priority 2008, dated 2011)
Where two headings read alike, the source gives them in different places.

Target: T1, serotonin 5-HT6 receptor subtype (Homo sapiens, UniProt P50406)
T1 construct: host or cells: CHO-Dukx-A2 cells, clone 50-7
Experiment: 5-HT6 binding affinity ([3H]-LSD SPA binding)
Settings: read-out: 5-HT6 binding Ki

T1 sequence (P50406 whole entry): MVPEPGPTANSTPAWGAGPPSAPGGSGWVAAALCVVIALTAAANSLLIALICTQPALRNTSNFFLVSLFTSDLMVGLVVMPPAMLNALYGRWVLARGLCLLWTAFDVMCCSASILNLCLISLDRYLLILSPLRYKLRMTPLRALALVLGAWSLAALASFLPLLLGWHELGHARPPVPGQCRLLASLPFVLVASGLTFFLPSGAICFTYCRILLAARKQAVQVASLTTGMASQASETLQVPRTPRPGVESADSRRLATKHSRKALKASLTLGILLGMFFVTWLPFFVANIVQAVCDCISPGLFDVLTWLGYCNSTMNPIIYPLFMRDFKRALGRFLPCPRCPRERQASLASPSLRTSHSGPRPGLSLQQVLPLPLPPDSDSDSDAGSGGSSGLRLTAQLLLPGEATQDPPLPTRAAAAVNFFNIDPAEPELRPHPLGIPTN

Structure (SMILES)	Ki	Ki (CHO-Dukx-A2 cells expressing 5-HT6 receptor (clone 50-7), 3 nM [3H]-LSD, PVT WGA SPA beads, Ki by Cheng-Prusoff)
Cc1nc2c(N3CCNC(C)C3)cccc2n1S(=O)(=O)c1ccccc1 (stereo in doubt) [Example 116, 2-methyl-4-[(3S)-3-methylpiperazin-1-yl]-1-(phenylsulfonyl)-1H-benzimidazole]	0.951 nM	–
Cc1c(F)cccc1S(=O)(=O)n1cnc2c(N3CCNCC3)cccc21 [Example 87, 1-[(3-fluoro-2-methylphenyl)sulfonyl]-4-piperazin-1-yl-1H-benzimidazole]	0.402 nM	–
Cc1nc2c(N3CCNC(C)C3)cccc2n1S(=O)(=O)c1ccccc1 (stereo in doubt) [Example 114, 2-methyl-4-[(3R)-3-methylpiperazin-1-yl]-1-(phenylsulfonyl)-1H-benzimidazole]	3.17 nM	–
Cc1cccc(S(=O)(=O)n2cnc3c(N4CCNC(C)C4)cccc32)c1 (stereo not shown) [Example 55, 1-[(3-methylphenyl)sulfonyl]-4-(3-methylpiperazin-1-yl)-1H-benzimidazole]	2.47 nM	–
Cc1nc2c(N3CCN[C@H](C)C3)cccc2n1S(=O)(=O)c1cccc2c(Cl)cccc12 [Example 127, 1-[(5-chloro-1-naphthyl)sulfonyl]-2-methyl-4-[(3R)-3-methylpiperazin-1-yl]-1H-benzimidazole]	8.38 nM	–
O=S(=O)(c1ccccc1C(F)(F)F)n1cnc2c(N3CCNCC3)cccc21 [Example 41, 4-piperazin-1-yl-1-{[2-(trifluoromethyl)phenyl]sulfonyl}-1H-benzimidazole]	1.06 nM	–
O=S(=O)(c1cccc(OC(F)(F)F)c1)n1cnc2c(N3CCNCC3)cccc21 [Example 28, 4-piperazin-1-yl-1-{[3-(trifluoromethoxy)phenyl]sulfonyl}-1H-benzimidazole]	1.95 nM	–
CN1CCN(c2cccc3c2ncn3S(=O)(=O)c2cccc3ccccc23)CC1 [Example 1, 4-(4-methylpiperazin-1-yl)-1-(naphthalen-1-ylsulfonyl)-1H-benzo[d]imidazole]	0.064 nM	–
Cc1nc2c(N3CCNCC3)cccc2n1S(=O)(=O)c1ccccc1OC(F)(F)F [Example 46, 2-methyl-4-piperazin-1-yl-1-{[2-(trifluoromethoxy)phenyl]sulfonyl}-1H-benzimidazole]	1.74 nM	–
Cc1nc2c(N3CCNCC3)cccc2n1S(=O)(=O)c1ccccc1 [Example 5, 2-methyl-1-(phenylsulfonyl)-4-piperazin-1-yl-1H-benzimidazole]	–	0.53 nM
O=S(=O)(c1ccc(C(F)(F)F)cc1)n1cnc2c(N3CCNCC3)cccc21 [Example 40, 4-piperazin-1-yl-1-{[4-(trifluoromethyl)phenyl]sulfonyl}-1H-benzimidazole]	18.9 nM	–
O=S(=O)(c1ccc(Cl)cc1)n1cnc2c(N3CCNCC3)cccc21 [Example 10, 1-[(4-chlorophenyl)sulfonyl]-4-piperazin-1-yl-1H-benzimidazole]	1.32 nM	–
Cc1c(Cl)cccc1S(=O)(=O)n1c(C)nc2c(N3C[C@@H]4C[C@H]3CN4)cccc21 [Example 113, 1-[(3-chloro-2-methylphenyl)sulfonyl]-4-[(1S,4S)-2,5-diazabicyclo[2.2.1]hept-2-yl]-2-methyl-1H-benzimidazole]	14.1 nM	–
CCN1CCN(c2cccc3c2ncn3S(=O)(=O)c2ccccc2)CC1 [Example 7, 4-(4-ethylpiperazin-1-yl)-1-(phenylsulfonyl)-1H-benzimidazole]	0.394 nM	–
COc1ccc(S(=O)(=O)n2c(C)nc3c(N4CCNCC4)cccc32)cc1 [Example 13, 1-[(4-methoxyphenyl)sulfonyl]-2-methyl-4-piperazin-1-yl-1H-benzimidazole]	1.82 nM	–
O=S(=O)(c1cccc(F)c1F)n1cnc2c(N3CCNCC3)cccc21 [Example 83, 1-[(2,3-difluorophenyl)sulfonyl]-4-piperazin-1-yl-1H-benzimidazole]	0.397 nM	–
O=S(=O)(c1cc(C(F)(F)F)ccc1Cl)n1cnc2c(N3CCNCC3)cccc21 [Example 71, 1-{[2-chloro-5-(trifluoromethyl)phenyl]sulfonyl}-4-piperazin-1-yl-1H-benzimidazole]	13.7 nM	–

Structure (SMILES)	Ki	Ki (CHO-Dukx-A2 cells expressing 5-HT6 receptor (clone 50-7), 3 nM [3H]-LSD, PVT WGA SPA beads, Ki by Cheng-Prusoff)
Cc1ccc(F)c(S(=O)(=O)n2cnc3c(N4CCNCC4)cccc32)c1 [Example 72, 1-[(2-fluoro-5-methylphenyl)sulfonyl]-4-piperazin-1-yl-1H-benzimidazole]	0.254 nM	–
O=S(=O)(c1cccc2ccccc12)n1cnc2c(N3C[C@@H]4C[C@H]3CN4)cccc21 [Example 105, 4-[(1S,4S)-2,5-diazabicyclo[2.2.1]hept-2-yl]-1-(naphthalen-1-ylsulfonyl)-1H-benzimidazole]	7.55 nM	–
Cc1ccc(S(=O)(=O)n2c(C(C)C)nc3c(N4CCNCC4)cccc32)c2ccccc12 [Example 64, 2-(1-methylethyl)-1-[(4-methylnaphthalen-1-yl)sulfonyl]-4-piperazin-1-yl-1H-benzimidazole]	1.6 nM	–
Cc1nc2c(N3CCNCC3)cccc2n1S(=O)(=O)c1ccccc1C(F)(F)F [Example 48, 2-methyl-4-piperazin-1-yl-1-{[2-(trifluoromethyl)phenyl]sulfonyl}-1H-benzimidazole]	2.94 nM	–
Cc1nc2c(N3C[C@@H](C)N[C@@H](C)C3)cccc2n1S(=O)(=O)c1ccccc1 [Example 96, 4-[(3R,5S)-3,5-dimethylpiperazin-1-yl]-2-methyl-1-(phenylsulfonyl)-1H-benzimidazole]	27.2 nM	–
Cc1cccc(Cl)c1S(=O)(=O)n1cnc2c(N3CCNCC3)cccc21 [Example 70, 1-[(2-chloro-6-methylphenyl)sulfonyl]-4-piperazin-1-yl-1H-benzimidazole]	2.33 nM	–
COc1ccccc1S(=O)(=O)n1c(C)nc2c(N3CCNCC3)cccc21 [Example 52, 1-[(2-methoxyphenyl)sulfonyl]-2-methyl-4-piperazin-1-yl-1H-benzimidazole]	1.89 nM	–
Cc1nc2c(N3CCNCC3)cccc2n1S(=O)(=O)c1cccc(F)c1 [Example 26, 1-[(3-fluorophenyl)sulfonyl]-2-methyl-4-piperazin-1-yl-1H-benzimidazole]	1.7 nM	–
Cc1nc2c(N3CCNC(C)C3)cccc2n1S(=O)(=O)c1cccc2ccccc12 (stereo not shown) [Example 92, 2-methyl-4-(3-methylpiperazin-1-yl)-1-(naphthalen-1-ylsulfonyl)-1H-benzimidazole]	0.623 nM	–
Cc1nc2c(N3CCNCC3)cccc2n1S(=O)(=O)c1cccc2ccccc12 [Example 4, 2-methyl-1-(1-naphthylsulfonyl)-4-piperazin-1-yl-1H-benzimidazole]	0.025 nM	–
CC(C)CC1CN(c2cccc3c2ncn3S(=O)(=O)c2cccc3ccccc23)CCN1 (stereo not shown) [Example 124, 4-(3-isobutylpiperazin-1-yl)-1-(1-naphthylsulfonyl)-1H-benzimidazole]	8.32 nM	–
Cc1nc2c(N3CCNC(C)C3)cccc2n1S(=O)(=O)c1cccc2ccccc12 (stereo in doubt) [Example 115, 2-methyl-4-[(3R)-3-methylpiperazin-1-yl]-1-(1-naphthylsulfonyl)-1H-benzimidazole]	1.12 nM	–
C[C@H]1CN(c2cccc3c2ncn3S(=O)(=O)c2cccc3ccccc23)CCN1 [Example 81, 4-[(3S)-3-methylpiperazin-1-yl]-1-(naphthalen-1-ylsulfonyl)-1H-benzimidazole]	0.354 nM	–
CC(C)c1nc2c(N3CCNCC3)cccc2n1S(=O)(=O)c1cccc(Cl)c1 [Example 60]	1.08 nM	–
O=S(=O)(c1cccc(C(F)(F)F)c1)n1cnc2c(N3CCNCC3)cccc21 [Example 42, 4-piperazin-1-yl-1-{[3-(trifluoromethyl)phenyl]sulfonyl}-1H-benzimidazole]	1.13 nM	–
Cc1nc2c(N3C[C@@H](C)N[C@@H](C)C3)cccc2n1S(=O)(=O)c1cccc2ccccc12 [Example 97, 4-[(3R,5S)-3,5-dimethylpiperazin-1-yl]-2-methyl-1-(naphthalen-1-ylsulfonyl)-1H-benzimidazole]	3.8 nM	–
Cc1ccc(S(=O)(=O)n2c(C)nc3c(N4CCNCC4)cccc32)cc1 [Example 31, 2-methyl-1-[(4-methylphenyl)sulfonyl]-4-piperazin-1-yl-1H-benzimidazole]	0.467 nM	–
